Among the test systems are MDA-N; BT-549; MOLT-4; OVCAR-5; COLO 205; HCC 2998; K562; RPMI-8226; UACC-62; U-251; NCI-H23; CCRF-CEM; T47D; NCI-H226; LOX IMVI; HOP-62; SK-MEL-2; EKVX; SR.
Test in all cases: growth of human tumour cells (NCI), 48 h

SMILES strings stand for the structures.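 All cell lines were grown in 96-well plates and treated with compound for 48 hours. Abbreviation: GI50, concentration required for 50% inhibition of growth.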 Calls of active or inactive are those of the source. No stated cut-off is given here; in the data, active = GI50 up to about 1.1 µM and inactive = higher.

For `CC(=O)N(C(C)=O)n1c(Cc2ccc(Cl)cc2)nn(C(C)=O)c1=O`, the GI50 in the assay with MDA-N, with BT-549, with MOLT-4, in the assay with OVCAR-5, with COLO 205 and with HCC 2998 was > 100 µM (inactive) throughout. The GI50 with K562, in the assay on RPMI-8226, in the assay with UACC-62, in the assay with U-251, in the assay with NCI-H23 and in the assay on CCRF-CEM was > 100 µM (inactive) throughout. The GI50 with T47D, in the assay on NCI-H226, in the assay with LOX IMVI, in the assay on HOP-62, in the assay on SK-MEL-2 and in the assay on EKVX was > 100 µM (inactive) each time. Moreover, in the assay on SR, the GI50 was > 100 µM (inactive).
With `COC(=O)C1=C(O)C(C(=O)OC)[C@]2(O)[C@H](C(=O)OC)[C@H]1C[C@@H](c1ccc(OC)c(OC)c1)[C@H]2C(=O)OC` (stereo partly specified), the GI50 in the assay on MDA-N was 7.13 µM (inactive); in the assay with BT-549, 16.4 µM (inactive); with MOLT-4, 17.5 µM (inactive); in the assay on OVCAR-5, 23.6 µM (inactive); in the assay on COLO 205, 17.9 µM (inactive); in the assay with HCC 2998, 11.7 µM (inactive). Also, the GI50 was 13.6 µM (inactive) in the assay with K562; 3.27 µM (inactive) in the assay on RPMI-8226; 22.9 µM (inactive) in the assay with UACC-62; 11.2 µM (inactive) in the assay on U-251; 19.8 µM (inactive) with NCI-H23; 0.129 µM (active) in the assay with CCRF-CEM. Besides, the GI50 in the assay on T47D is 15.9 µM (inactive); in the assay on NCI-H226 it was 4.79 µM (inactive); in the assay on LOX IMVI, 13.4 µM (inactive); in the assay on HOP-62, 16.7 µM (inactive); with SK-MEL-2 it was 20 µM (inactive); in the assay on EKVX it was 32.5 µM (inactive). Moreover, the GI50 in the assay on SR was 14 µM (inactive).
As to `O=C(CCCCCCCCC(=O)NN1C(=O)/C(=C\c2ccc(O)c(O)c2)SC1c1ccc(Cl)cc1)NN1C(=O)/C(=C\c2ccc(O)c(O)c2)SC1c1ccc(Cl)cc1` (stereo unspecified), the GI50 with MDA-N is > 88.1 µM (inactive); in the assay on BT-549 it was > 47.3 µM (inactive); in the assay with MOLT-4 it was 1.82 µM (inactive); with OVCAR-5, > 86.3 µM (inactive); in the assay on COLO 205, 24.8 µM (inactive); in the assay on HCC 2998, 34.2 µM (inactive). Besides, the GI50 was 21.6 µM (inactive) in the assay with K562; 2.72 µM (inactive) in the assay with RPMI-8226; 14.2 µM (inactive) in the assay with UACC-62; 15.7 µM (inactive) with U-251; 15.5 µM (inactive) in the assay with NCI-H23; < 0.01 µM (active) with CCRF-CEM. Also, the GI50 was 31.9 µM (inactive) with T47D; 59.3 µM (inactive) with NCI-H226; 13.6 µM (inactive) with LOX IMVI; 10.3 µM (inactive) in the assay with HOP-62; 20.4 µM (inactive) in the assay with SK-MEL-2; 50.8 µM (inactive) with EKVX. Also, in the assay with SR, the GI50 is 2.08 µM (inactive).
Take `N/C(=N\N/C=C1\C=Nc2cc(C(F)(F)F)ccc2C1=O)NO`: the GI50 in the assay on MDA-N, in the assay on BT-549, with MOLT-4, with OVCAR-5, with COLO 205 and in the assay with HCC 2998 was > 10 µM (inactive) throughout. In addition, the GI50 was 7.67 µM (inactive) with K562; > 10 µM (inactive) with RPMI-8226; > 10 µM (inactive) in the assay with UACC-62; > 10 µM (inactive) in the assay on U-251; > 10 µM (inactive) in the assay with NCI-H23; > 10 µM (inactive) with CCRF-CEM. For the same compound, the GI50 in the assay with T47D, in the assay with NCI-H226, in the assay on LOX IMVI, in the assay with HOP-62, in the assay with SK-MEL-2 and with EKVX was > 10 µM (inactive) throughout. In the assay with SR, the GI50 is > 10 µM (inactive).
